Measurements published in ChEMBL document CHEMBL5321221, “Structure-activity relationship study of RSL3-based GPX4 degraders and its potential noncovalent optimization” (Eur J Med Chem, 2023).
One block for each molecule: values may come before it. Active and inactive are the calls of the source. The calls are words filed in the database; no cut-off is given here.

How the values were obtained:
[1] = target: T1, Phospholipid hydroperoxide glutathione peroxidase GPX4 (Homo sapiens) (UniProt P36969); assay: Induction of GPX4 degradation in human HT-1080 cells at 10 uM incubated for 24 hrs by Western blotting analysis; assay type: cell-based
T1 sequence (whole entry): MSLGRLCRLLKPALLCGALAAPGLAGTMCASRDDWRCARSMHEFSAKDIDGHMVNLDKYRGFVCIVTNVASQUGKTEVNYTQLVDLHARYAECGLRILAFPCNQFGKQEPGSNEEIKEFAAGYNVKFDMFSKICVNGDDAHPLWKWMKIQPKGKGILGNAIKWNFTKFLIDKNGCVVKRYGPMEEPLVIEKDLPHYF

[2] = target: T1, Phospholipid hydroperoxide glutathione peroxidase GPX4 (Homo sapiens); assay: Induction of GPX4 degradation in human HT-1080 cells at 10 nM incubated for 24 hrs relative to control; assay type: cell-based
[3] = target: T1, Phospholipid hydroperoxide glutathione peroxidase GPX4 (Homo sapiens); assay: Induction of GPX4 degradation in human HT-1080 cells at 0.1 uM incubated for 6 hrs relative to control; assay type: cell-based
[4] = target: T1, Phospholipid hydroperoxide glutathione peroxidase GPX4 (Homo sapiens); assay: Induction of GPX4 degradation in human HT-1080 cells at 10 uM incubated for 24 hrs relative to control; assay type: cell-based
[5] = target: T1, Phospholipid hydroperoxide glutathione peroxidase GPX4 (Homo sapiens); assay: Induction of GPX4 degradation in human HT-1080 cells at 0.1 to 1 uM incubated for 24 hrs; assay type: cell-based; settings: dose 0.1-1 µM
[6] = system: HT-1080; assay: Antiproliferative activity against human HT-1080 cells at 10 uM; assay type: functional, cell-based
[7] = system: HT-1080; assay: Antiproliferative activity against human HT-1080 cells at 1 uM incubated for 24 hrs in presence of liproxstatin-1; assay type: functional, cell-based
[8] = target: T2, Phospholipid hydroperoxide glutathione peroxidase GPX4 (Homo sapiens, UniProt P36969); assay: Induction of GPX4 degradation in gefitinib resistant human NCI-H1650 cells incubated for 24 hrs; assay type: cell-based
T2 sequence (P36969 whole entry): T1 sequence (whole entry)

[9] = target: T1, Phospholipid hydroperoxide glutathione peroxidase GPX4 (Homo sapiens); assay: Induction of GPX4 degradation in human HT-1080 cells at 0.1 uM pretreated for 2 hrs followed by PYR41 addition and measured after 6 hrs; assay type: cell-based; settings: time 8.0 hrs
[10] = target: T1, Phospholipid hydroperoxide glutathione peroxidase GPX4 (Homo sapiens); assay: Induction of GPX4 degradation in human HT-1080 cells in presence of RSL3; assay type: cell-based
[11] = target: T1, Phospholipid hydroperoxide glutathione peroxidase GPX4 (Homo sapiens); assay: Induction of GPX4 degradation in human HT-1080 cells at 0.0001 to 0.1 uM incubated for 24 hrs by Western blotting analysis; assay type: cell-based; settings: dose 0.0001-0.1 µM
[12] = target: T2, Phospholipid hydroperoxide glutathione peroxidase GPX4; assay: Induction of GPX4 degradation in human NCI-H1650 cells incubated for 24 hrs; assay type: cell-based
[13] = system: HT-1080; assay: Potency index, ratio of methyl (1S,3R)-1-(4-acetylphenyl)-2-(2-chloroacetyl)-2,3,4,9-tetrahydro-1H-pyrido[3,4-b]indole-3-carboxylate IC50 to test compound IC50 for antiproliferative activity against human HT-1080 cells; assay type: functional
[14] = target: T1, Phospholipid hydroperoxide glutathione peroxidase GPX4 (Homo sapiens); assay: Induction of GPX4 degradation in human HT-1080 cells at 0.0001 to 0.1 uM incubated for 1 hr by Western blotting analysis; assay type: cell-based; settings: dose 0.0001-0.1 µM
[15] = target: T2, Phospholipid hydroperoxide glutathione peroxidase GPX4; assay: (§1) Induction of GPX4 degradation in human HT-1080 cells incubated for 6 hrs by Western blotting analysis; assay type: cell-based
[16] = target: T1, Phospholipid hydroperoxide glutathione peroxidase GPX4 (Homo sapiens); assay: as §1; assay type: cell-based; settings: dose 0.0001-0.1 µM
[17] = target: T1, Phospholipid hydroperoxide glutathione peroxidase GPX4 (Homo sapiens); assay: Induction of GPX4 degradation in human HT-1080 cells in presence of lenalidomide; assay type: cell-based
[18] = system: HT-1080; assay: Potency index, ratio of (4-(bis(4-chlorophenyl)methyl)piperazin-1-yl)(5-methyl-4-nitroisoxazol-3-yl)methanone IC50 to test compound IC50 for antiproliferative activity against human HT-1080 cells; assay type: functional
[19] = target: T1, Phospholipid hydroperoxide glutathione peroxidase GPX4 (Homo sapiens); assay: Induction of GPX4 degradation in human HT-1080 cells at 0.1 uM pretreated for 2 hrs followed by MG132 and measured after 6 hrs; assay type: cell-based; settings: time 8.0 hrs
[20] = system: HT-1080; assay: Antiproliferative activity against human HT-1080 cells incubated for 24 hrs; assay type: functional, cell-based; settings: HT-1080, 24 h
[21] = Antiproliferative activity against human HEK293T cells incubated for 24 hrs; assay type: toxicity, cell-based, HEK-293T

SMILES: CCC(=O)N1[C@@H](c2ccc(C(=O)OC)cc2)c2[nH]c3ccccc3c2C[C@@H]1C(=O)OC
Activity [1]: inactive

SMILES: COC(=O)[C@H]1Cc2c([nH]c3ccccc23)[C@H](c2ccc(C(=O)N3CCC(CN4CCN(CCCCCCCCNc5cccc6c5C(=O)N(C5CCC(=O)NC5=O)C6=O)CC4)CC3)cc2)N1C(=O)CCl (stereo partly specified)
Activity [2]: 34%

SMILES: COC(=O)[C@H]1Cc2c([nH]c3ccccc23)[C@H](c2ccc(C(=O)N3CCC(N4CCN(CCCCCCCCCNc5cccc6c5CN(C5CCC(=O)NC5=O)C6=O)CC4)CC3)cc2)N1C(=O)CCl (stereo partly specified)
Activity [2]: 15%

SMILES: COC(=O)[C@H]1Cc2c([nH]c3ccccc23)[C@H](c2ccc(C(=O)NCc3cn(CCOCCOCCOCCN[C@H](C(=O)N4C[C@H](O)C[C@H]4C(=O)N[C@@H](C)c4ccc(-c5scnc5C)cc4)C(C)(C)C)nn3)cc2)N1C(=O)CCl
Activity [5]: inactive
Activity [6]: Active
Activity [4]: 50%

SMILES: COC(=O)[C@H]1Cc2c([nH]c3ccccc23)[C@H](c2ccc(C(=O)NCc3cn(CCOCCOCCOCCOCCN[C@H](C(=O)N4C[C@H](O)C[C@H]4C(=O)N[C@@H](C)c4ccc(-c5scnc5C)cc4)C(C)(C)C)nn3)cc2)N1C(=O)CCl
Activity [4]: 12%

SMILES: COC(=O)[C@H]1Cc2c([nH]c3ccccc23)[C@H](c2ccc(C(=O)NCc3cn(CCOCCOCCOCCOCCOCCNc4cccc5c4CN(C4CCC(=O)NC4=O)C5=O)nn3)cc2)N1C(=O)CCl (stereo partly specified)
Activity [4]: inactive

SMILES: COC(=O)[C@H]1Cc2c([nH]c3ccccc23)[C@H](c2ccc(C(=O)NCc3cn(CCOCCOCCOCCNc4cccc5c4CN(C4CCC(=O)NC4=O)C5=O)nn3)cc2)N1C(=O)CCl (stereo partly specified)
Activity [4]: inactive

SMILES: COC(=O)[C@H]1Cc2c([nH]c3ccccc23)[C@H](c2ccc(C(=O)N3CCN(CCCCCCCCCCCCNc4cccc5c4C(=O)N(C4CCC(=O)NC4=O)C5=O)CC3)cc2)N1C(=O)CCl (stereo partly specified)
Activity [3]: 56%

SMILES: COC(=O)[C@H]1Cc2c([nH]c3ccccc23)[C@H](c2ccc(C(=O)N3CCN(CCCCCCCCCCCCCCNc4cccc5c4CN(C4CCC(=O)NC4=O)C5=O)CC3)cc2)N1C(=O)CCl (stereo partly specified)
Activity [3]: 58%

SMILES: COC(=O)[C@H]1Cc2c([nH]c3ccccc23)[C@H](c2ccc(C(=O)NCc3cn(CCOCCOCCOCCOCCOCCNc4cccc5c4C(=O)N(C4CCC(=O)NC4=O)C5=O)nn3)cc2)N1C(=O)CCl (stereo partly specified)
Activity [4]: 15%

SMILES: COC(=O)[C@H]1Cc2c([nH]c3ccccc23)[C@H](c2ccc(C(=O)NCc3cn(CCOCCOCCOCCOCCOCCN[C@H](C(=O)N4C[C@H](O)C[C@H]4C(=O)N[C@@H](C)c4ccc(-c5scnc5C)cc4)C(C)(C)C)nn3)cc2)N1C(=O)CCl
Activity [4]: 11%

SMILES: COC(=O)[C@H]1Cc2c([nH]c3ccccc23)[C@H](c2ccc(C(=O)N3CCN(CCCCCCCCCCCCCNc4cccc5c4C(=O)N(C4CCC(=O)NC4=O)C5=O)CC3)cc2)N1C(=O)CCl (stereo partly specified)
Activity [3]: 67%

SMILES: COC(=O)[C@H]1Cc2c([nH]c3ccccc23)[C@H](c2ccc(C(=O)NCc3cn(CCOCCOCCNc4cccc5c4CN(C4CCC(=O)NC4=O)C5=O)nn3)cc2)N1C(=O)CCl (stereo partly specified)
Activity [4]: inactive

SMILES: COC(=O)[C@H]1Cc2c([nH]c3ccccc23)[C@H](c2ccc(C(=O)NCc3cn(CCOCCOCCNc4cccc5c4C(=O)N(C4CCC(=O)NC4=O)C5=O)nn3)cc2)N1C(=O)CCl (stereo partly specified)
Activity [4]: 32%

SMILES: COC(=O)[C@H]1Cc2c([nH]c3ccccc23)[C@H](c2ccc(C(=O)NCc3cn(CCOCCOCCOCCOCCNc4cccc5c4CN(C4CCC(=O)NC4=O)C5=O)nn3)cc2)N1C(=O)CCl (stereo partly specified)
Activity [4]: inactive

More lines, main results first:

Activity [3]: 68%
SMILES: COC(=O)[C@H]1Cc2c([nH]c3ccccc23)[C@H](c2ccc(C(=O)N3CCN(CCCCCCCCCCCCNc4cccc5c4CN(C4CCC(=O)NC4=O)C5=O)CC3)cc2)N1C(=O)CCl (stereo partly specified)

Activity [3]: 46%
SMILES: COC(=O)[C@H]1Cc2c([nH]c3ccccc23)[C@H](c2ccc(C(=O)N3CCN(CCCCCCCCCCCNc4cccc5c4C(=O)N(C4CCC(=O)NC4=O)C5=O)CC3)cc2)N1C(=O)CCl (stereo partly specified)

Activity [4]: 35%
SMILES: COC(=O)[C@H]1Cc2c([nH]c3ccccc23)[C@H](c2ccc(C(=O)NCc3cn(CCOCCOCCOCCOCCNc4cccc5c4C(=O)N(C4CCC(=O)NC4=O)C5=O)nn3)cc2)N1C(=O)CCl (stereo partly specified)

Activity [4]: 22%
SMILES: COC(=O)[C@H]1Cc2c([nH]c3ccccc23)[C@H](c2ccc(C(=O)NCc3cn(CCOCCOCCOCCNc4cccc5c4C(=O)N(C4CCC(=O)NC4=O)C5=O)nn3)cc2)N1C(=O)CCl (stereo partly specified)

Activity [3]: 48%
SMILES: COC(=O)[C@H]1Cc2c([nH]c3ccccc23)[C@H](c2ccc(C(=O)N3CCN(CCCCCCCCCNc4cccc5c4CN(C4CCC(=O)NC4=O)C5=O)CC3)cc2)N1C(=O)CCl (stereo partly specified)

Activity [3]: 44%
SMILES: COC(=O)[C@H]1Cc2c([nH]c3ccccc23)[C@H](c2ccc(C(=O)N3CCN(CCCCCCCCCCCCCCNc4cccc5c4C(=O)N(C4CCC(=O)NC4=O)C5=O)CC3)cc2)N1C(=O)CCl (stereo partly specified)

Activity [1]: inactive
SMILES: CCCCCC(=O)N1[C@@H](c2ccc(C(=O)OC)cc2)c2[nH]c3ccccc3c2C[C@@H]1C(=O)OC

DC50 [8]: 22.9 nM
Activity [9]: inactive
Activity [10]: Active
Activity [11]: Active
DC50 [12]: 17.9 nM
Activity [2]: 57%
Activity [14]: Active
DC50 [15]: 37.4 nM
Activity [16]: Dose-Dependent Effect
Activity [17]: Active
Activity [19]: inactive
Activity [3]: 69%
IC50 [20]: 68 nM
SMILES: COC(=O)[C@H]1Cc2c([nH]c3ccccc23)[C@H](c2ccc(C(=O)N3CCN(CCCCCCCCCCCCCNc4cccc5c4CN(C4CCC(=O)NC4=O)C5=O)CC3)cc2)N1C(=O)CCl (stereo partly specified)
Activity [7]: inactive
Ratio IC50 [13]: 2
Ratio IC50 [18]: 6
IC50 at 24 h [21]: 205 nM

Activity [1]: inactive
SMILES: COC(=O)c1ccc([C@@H]2N[C@@H](C(=O)OC)Cc3c2[nH]c2ccccc32)cc1

Activity [1]: inactive
SMILES: CCC(=O)N1[C@@H](c2ccc(C(=O)N3CCN(CCCCCCCCCCCCCNc4cccc5c4CN(C4CCC(=O)NC4=O)C5=O)CC3)cc2)c2[nH]c3ccccc3c2C[C@@H]1C(=O)OC (stereo partly specified)

Activity [3]: 10%
SMILES: COC(=O)[C@H]1Cc2c([nH]c3ccccc23)[C@H](c2ccc(C(=O)N3CCN(CCCCCCCNc4cccc5c4CN(C4CCC(=O)NC4=O)C5=O)CC3)cc2)N1C(=O)CCl (stereo partly specified)

Activity [3]: 64%
SMILES: COC(=O)[C@H]1Cc2c([nH]c3ccccc23)[C@H](c2ccc(C(=O)N3CCN(CCCCCCCCCCCNc4cccc5c4CN(C4CCC(=O)NC4=O)C5=O)CC3)cc2)N1C(=O)CCl (stereo partly specified)

Activity [1]: inactive
SMILES: CCCC(=O)N1[C@@H](c2ccc(C(=O)OC)cc2)c2[nH]c3ccccc3c2C[C@@H]1C(=O)OC

IC50 [20]: 410 nM
SMILES: Cc1onc(C(=O)N2CCN(C(c3ccc(Cl)cc3)c3ccc(Cl)cc3)CC2)c1[N+](=O)[O-]
IC50 at 24 h [21]: 430 nM

Activity [2]: 3%
SMILES: COC(=O)[C@H]1Cc2c([nH]c3ccccc23)[C@H](c2ccc(C(=O)N3CCC(CN4CCN(CCCNc5cccc6c5C(=O)N(C5CCC(=O)NC5=O)C6=O)CC4)CC3)cc2)N1C(=O)CCl (stereo partly specified)

Activity [2]: 5%
SMILES: COC(=O)[C@H]1Cc2c([nH]c3ccccc23)[C@H](c2ccc(C(=O)N3CCC(CN4CCN(CCCCCNc5cccc6c5C(=O)N(C5CCC(=O)NC5=O)C6=O)CC4)CC3)cc2)N1C(=O)CCl (stereo partly specified)

Activity [4]: 49%
SMILES: COC(=O)[C@H]1Cc2c([nH]c3ccccc23)[C@H](c2ccc(C(=O)NCc3cn(CCOCCOCCN[C@H](C(=O)N4C[C@H](O)C[C@H]4C(=O)N[C@@H](C)c4ccc(-c5scnc5C)cc4)C(C)(C)C)nn3)cc2)N1C(=O)CCl
